In experiment [1] the target is T1, Melanin-concentrating hormone receptor 1 (Homo sapiens, UniProt Q99705). Briefly: Inhibition of 125I-[Phe13,Tyr19]-MCH binding to human MCH-R1. As to conditions: concentration not given here.
Experiment [2] concerns the target T2, Melanin-concentrating hormone receptor 2 (Homo sapiens, UniProt Q969V1). Briefly: Inhibition of 125I-[Phe13,Tyr19]-MCH binding to human MCH-R2 at 2uM.
For experiment [3], the target named is T1, Melanin-concentrating hormone receptor 1. Description: Displacement of 125I-[Phe13,Tyr19]-MCH from human MCH-R1.
Experiment [4] shares this target. Description: Stimulation of IP3-coupled mobilization of calcium in HEK293 cells expressing MCH-R1. It is filed as functional, cell-based.
In experiment [5] the target is T2, Melanin-concentrating hormone receptor 2. Briefly: Displacement of 125I-[Phe13,Tyr19]-MCH from human MCH-R2.

SMILES strings stand for the structures. Some results are limits rather than exact numbers.

T2 sequence (Q969V1 whole entry): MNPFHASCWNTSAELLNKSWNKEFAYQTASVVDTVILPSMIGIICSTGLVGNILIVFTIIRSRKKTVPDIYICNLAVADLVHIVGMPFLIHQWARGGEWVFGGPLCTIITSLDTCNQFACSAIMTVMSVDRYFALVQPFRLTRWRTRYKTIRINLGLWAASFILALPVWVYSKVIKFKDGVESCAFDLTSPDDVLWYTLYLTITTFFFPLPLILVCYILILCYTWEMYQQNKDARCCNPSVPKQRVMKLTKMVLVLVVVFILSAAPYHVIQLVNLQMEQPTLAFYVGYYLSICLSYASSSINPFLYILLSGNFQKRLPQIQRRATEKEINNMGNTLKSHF
T1 sequence (Q99705 whole entry): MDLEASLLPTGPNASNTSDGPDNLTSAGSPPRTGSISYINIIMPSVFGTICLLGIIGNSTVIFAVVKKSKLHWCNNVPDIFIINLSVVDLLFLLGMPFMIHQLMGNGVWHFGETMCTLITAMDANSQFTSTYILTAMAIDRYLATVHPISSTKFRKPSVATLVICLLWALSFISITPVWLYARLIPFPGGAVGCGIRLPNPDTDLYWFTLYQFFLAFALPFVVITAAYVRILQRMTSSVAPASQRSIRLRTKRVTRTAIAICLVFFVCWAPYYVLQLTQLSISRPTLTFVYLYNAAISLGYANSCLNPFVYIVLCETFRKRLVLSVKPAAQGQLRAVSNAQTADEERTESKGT

Regarding `CCCc1cc(N)c2cc(NC(=O)c3ccccc3)ccc2n1`, the inhibition in experiment [1] and in experiment [2] was less than 50% throughout.

With `CCCc1cc(O)c2cc(NC(=O)/C=C/c3ccc(C(F)(F)F)cc3)ccc2n1`, the inhibition in experiment [1] and in experiment [2] was less than 50% throughout.

Consider `CCCc1cc(NC2CCC2)c2cc(NC(=O)/C=C/c3ccc(C(F)(F)F)cc3)ccc2n1`, for which the half-maximal inhibitory concentration (IC50) in experiment [3] worked out at 18 nM; in experiment [5] it was 960 nM. Also, the EC50 in experiment [4] worked out at 270 nM.

In experiment [3], `CCCCc1ccc(/C=C/C(=O)Nc2ccc3nc(CCC)cc(N)c3c2)cc1` gave a half-maximal inhibitory concentration (IC50) of 45 nM. In addition, the concentration giving a half-maximal response (EC50) in experiment [4] is 740 nM. The inhibition in experiment [2] was less than 50%.

`CCCc1cc(N)c2cc(NC(=O)/C=C/c3ccc(C(C)(C)C)cc3)ccc2n1`: in experiment [3], the IC50 stood at 22 nM. Moreover, the EC50 in experiment [4] amounted to 910 nM. This compound registered an inhibition in experiment [2] of less than 50%.

As to `CCCc1cc(N)c2cc(NC(=O)CCc3ccc(C(F)(F)F)cc3)ccc2n1`, the IC50 in experiment [3] turned out to be 13 nM. Further, in experiment [4], the EC50 was found to be 120 nM. Moreover, the inhibition in experiment [2] is less than 50%.

For the compound `CCC(C)c1cc(N)c2cc(NC(=O)/C=C/c3ccc(C(F)(F)F)cc3)ccc2n1` (centres undefined), in experiment [3], the 50% inhibitory concentration (IC50) stood at 0.3 nM. The concentration giving a half-maximal response (EC50) in experiment [4] is 44 nM. The inhibition in experiment [2] is less than 50%.

The record behind these values is ChEMBL document CHEMBL1137266, “4-Aminoquinoline melanin-concentrating hormone 1-receptor (MCH1R) antagonists” (Bioorg Med Chem Lett, 2006).
